Residues, ends and D or L forms follow the SMILES beside them.
Key:
Format in all cases: in vivo, mouse (Balb/c)
Details in all cases: BALF, serum or lung tissue extract
TNFα = assay: Induction of TNFα by the peptide itself
IL-1β = assay: Induction of IL-1β by the peptide itself
IL-4 = assay: Induction of IL-4 by the peptide itself
IL-5 = assay: Induction of IL-5 by the peptide itself

induction of TNFα (TNFα): did not induce | induction of IL-1β (IL-1β): did not induce | induction of IL-4 (IL-4): did not induce | induction of IL-5 (IL-5): did not induce
SMILES: CC[C@H](C)[C@H](NC(=O)[C@H](CCCNC(=N)N)NC(=O)[C@H](Cc1c[nH]c2ccccc12)NC(=O)[C@@H](NC(=O)[C@@H](NC(=O)[C@H](CC(C)C)NC(=O)[C@H](Cc1c[nH]c2ccccc12)NC(=O)[C@H](CCCNC(=N)N)NC(=O)[C@H](CCC(N)=O)NC(=O)[C@@H](N)C(C)C)[C@@H](C)CC)C(C)C)C(=O)N[C@@H](CCCNC(=N)N)C(=O)N[C@@H](CCCCN)C(N)=O [IDR 1002, VQRWLIVWRIRK-NH2] (H-VQRWLIVWRIRK-NH2)

From US20170158745A1, “IDR PEPTIDE COMPOSITIONS AND USE THEREOF FOR TREATMENT OF TH2-DYSREGULATED INFLAMMATORY CONDITIONS” (University of Manitoba, priority 2013, published 2017)
